Laboratory results published in US20260250318A1, “COMPOSITIONS AND METHODS FOR CROSSING THE BLOOD BRAIN BARRIER” (VOYAGER THERAPEUTICS, INC., priority 2022, published 2026).

System: brain
Experiment: Maturation of TTM-001 capsid, NGS enrichment in brain of CD-1 Outbred mice
Assay type: in vivo
Conditions: NGS fold-enrichment of TTM-001 matured AAV capsid variants in the brain of CD-1 Outbred mice; intravenous 1.0×10^12 VG/dose; 14 days in life; RNA; relative to non-matured TTM-001 control
In short: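 Pooled matured TTM-001 or TTM-002 capsid libraries (loop IV region randomized by triple-codon or low-frequency point mutagenesis) dosed IV via tail vein at 1.0×10^12 VG/dose to three female CD-1 mice. Brain RNA taken after 14 days; RT-PCR and NGS gave fold enrichment versus parent TTM-001 or TTM-002 control.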

Sequence | Fold enrichment over TTM-001
KTINGSGSPHSKRALQQT | 2.114 fold
KTINGSGSPHSKVKPQQT | 2.778 fold
KTINGSGSPHSKARRSQT | 3.493 fold
KTINGSGSPHSKAQVCLT | 2.182 fold
KTINGSGSPHSWLSNQQT | 3.495 fold
KTINGSGSPHWSLQNQQT | 2.389 fold
KTINGSGSPHSKGVRQQT | 2.115 fold
KTINGSGSPHSKARNKQT | 2.108 fold
KTINGSGSPHSKARGYQT | 2.492 fold
KTINRVISPHSKAQNQQT | 2.169 fold
KTINGSGSPHSKACSAQT | 2.754 fold
KTINGSGSPHSKALRSQT | 2.648 fold
KTINGSGSPHSRRSNQQT | 2.851 fold
KTINGSGSPHSVSWNQQT | 2.223 fold
KTINGSGSPHSCLQNQQT | 3.559 fold
KTINGSGSPHCLAQNQQT | 4.847 fold
KTINGSGSPHSKAQLTVT | 4.026 fold
KTINGSGSPHVRRQNQQT | 4.114 fold
KTINGSGSPHSFITNQQT | 2.868 fold
KTINGSPSPHRKAQNQQT | 2.430 fold
KTINGSRSPHTRAQNQQT (peptide inserted in AAV capsid) | 3.989 fold
KTINGSGSPHSCAQNQQT | 2.030 fold
KTINGSGSPHSKAQHLRT | 2.741 fold
KTINGSGSPHSKWSLQQT | 2.453 fold

Sequence | Fold enrichment over TTM-001
KTINGSGSPHSKKMSQQT | 2.235 fold
KTINGSGSPHSKAGRGQT | 2.058 fold
KTINGSGSPHLSWQNQQT | 3.047 fold
KTINGSGSPHVLWQNQQT | 4.533 fold
KTINGSGSPHSKASRRQT | 3.577 fold
KTINGSGSPHSKWLVQQT | 2.333 fold
KTINGSGSPHSKASKNQT | 2.171 fold
KTINGSGSPHSKAQFSVT | 2.015 fold
KTINGSGSPHSKAQVKLT | 2.564 fold
KTINGSGSPHSKARLRQT | 4.155 fold
KTINGSGSPHSKAQGVKT | 2.002 fold
KTINGSGSPHSKAQLSIT | 2.784 fold
KTINGSGSPHSKTRMQQT | 2.011 fold
KTINGSGSPHSSRKNQQT | 2.585 fold
KPLPGSGSPHSKAQNQQT | 2.495 fold
KTINGSGSPHSKAQLPWT | 2.169 fold
KTINGSGSPHSLWSNQQT | 4.467 fold
KTINGSGSPHSKAQASKT | 2.546 fold
KTINGSGSPHSKRTSQQT | 2.857 fold
KTINGSGSPHSKRAMQQT | 3.801 fold
KTINGSGSPHSKAQTGRT | 2.371 fold
KTINGSGSPHSKVRVQQT | 2.034 fold
KTINGSGSPHSKAQLKLT | 2.125 fold
KTINGRHSPHLKAQNQQT | 2.369 fold

Sequence | Fold enrichment over TTM-001
KTINGSGSPHRSRQNQQT | 2.270 fold
KTINGSGSPHSKANKSQT | 2.056 fold
KTINGSGSPHSKRVGQQT | 2.190 fold
KTINGSRSPHFKAQNQQT (peptide inserted in AAV capsid) | 2.277 fold
KSINGSGSPHSKAHDQQT | 3.592 fold
KTINGSGSPHSKANRMQT | 2.508 fold
KTINGYLSPHRKAQNQQT | 2.762 fold
KTINGSGSPHSLRFNQQT | 4.765 fold
KTRRSSGSPHSKAQNQQT | 2.438 fold
KTINGSGSPHSKARKLQT | 2.458 fold
KTINGRQSPHAKAQNQQT | 2.026 fold
KTINGSGSPHALFQNQQT | 2.261 fold
KTINGSGSPHSKRFLQQT | 3.359 fold
KTINGSGSPHSKRSLQQT | 2.270 fold
KTINGSGSPHSKAQLGRT | 2.069 fold
KTINGSGSPHSLLCNQQT | 3.644 fold
KTINGSGSPHSWGSNQQT | 2.473 fold
KTINRRLSPHSKAQNQQT | 2.678 fold
KTINGSLSPHTWAQNQQT | 2.115 fold
KTINGSGSPHSKARMAQT | 2.488 fold
KTINGSCSPHRKAQNQQT | 4.801 fold
KTINGSGSPHELPQNQQT (KTINGSGSPHFLPQNQQT) | 2.123 fold
KTINGSGSPHSKAQLFKT | 2.385 fold
KTINGSGSPHSKVRAQQT | 2.412 fold

Sequence | Fold enrichment over TTM-001
KTINGSGSPHSKRNVQQT | 2.404 fold
KTINGLLSPHWKAQNQQT | 4.173 fold
KTINGSGSPHSFLRNQQT | 3.384 fold
KTINGSGSPHPYAQNQQT | 2.598 fold
KTINGSGSPHSKPRPQQT | 2.352 fold
KTINGNLSPHRKAQNQQT | 2.250 fold
KTINGSGSPHSKAQTMRT | 2.453 fold
KTINGSGSPHSKAQVTLT | 2.179 fold
KTINGSGSPHLRFQNQQT | 2.186 fold
KTINGSGSPHSKLSRQQT | 2.380 fold
KTINGSGSPHLNWQNQQT | 3.112 fold
KTINGSGSPHSKARIVQT | 3.287 fold
KTINGSLSPHRRAQNQQT | 2.717 fold
KTINGSGSPHSALWNQQT | 2.261 fold
KTINGSGSPHSKAQYYVT | 6.283 fold
KTINLIWSPHSKAQNQQT | 2.035 fold
KTINGSGSPHSRLFNQQT | 2.542 fold
KTINGSGSPHSLSCNQQT | 2.605 fold
KTINGSGSPHSKLCVQQT | 2.659 fold
KTINGSVSPHRRAQNQQT (peptide inserted in AAV capsid) | 2.186 fold
KTINGSGSPHSKAQITLT | 3.177 fold
KTINGSRSPHRLAQNQQT (peptide inserted in AAV capsid) | 2.698 fold
KTINGSGSPHSKEETQQT | 2.223 fold
KTINGSGSPHSKRASQQT | 2.173 fold

Sequence | Fold enrichment over TTM-001
KTINGSGSPHSKAQQSRT | 2.337 fold
KTINGSGSPHSKAQLRKT | 2.689 fold
KTINGLASPHRKAQNQQT | 2.737 fold
KTINGLLSPHRKAQNQQT | 3.026 fold
KTINGSGSPHSKSRHQQT | 2.685 fold
KTINGSCSPHVRAQNQQT | 2.406 fold
KTINGSGSPHSRTRNQQT | 2.912 fold
KTINGSGSPHSKAWLMQT | 2.015 fold
KTINGSGSPHSLWQNQQT | 2.037 fold
KTINGSGSPHSKILWQQT | 2.838 fold
KTINGSGSPHSKARSYQT | 2.382 fold
KTINGSGSPHCLSQNQQT | 2.114 fold
KTINGSGSPHSKPRGQQT | 2.147 fold
KTINGSGSPHLFRQNQQT | 2.324 fold
KTINGSGSPHSKWTLQQT | 2.039 fold
KTINGSSSPHCLAQNQQT (peptide inserted in AAV capsid) | 2.074 fold
KTINGSGSPHYLLQNQQT | 2.011 fold
KTINGSGSPHSKAQFWVT | 2.050 fold
KTINGSGSPHSKAQATRT | 2.019 fold
KTINGSGSPHSKVGRQQT | 3.255 fold
